In US7563781B2, “Triazolopyrimidine derivatives” (Janssen Pharmaceutica NV, priority 2006, dated 2009):

Key:
[1] = biological target: T1, Focal Adhesion Kinase (full-length Flag-tagged human FAK) (Homo sapiens, UniProt Q05397); test: in vitro FAK ELISA kinase assay; assay type: biochemical; conditions: compound 10 uM; ATP 2 uM; read-out: FAK % Inhib ave: 10 uM
T1 construct: a purified recombinant full-length Flag-tagged human FAK protein; Flag; made in house; host or cells: baculovirus infected insect cells
Summary of the method: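 Plate-coated GST fusion of the 73-residue region around Tyr397 phosphorylated by full-length Flag-tagged human FAK from baculovirus-infected insect cells, with 2 μM ATP in Mg/Mn HEPES pH 7.5, 1 h at 30 °C. Phosphotyrosine detected by HRP-anti-pTyr ELISA with TMB read-out. Compounds screened at 10 μM or titrated from 50 μM in half-log steps for IC50, BSA-substrate background subtracted.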

[2] = biological target: T2, CAK complex (human Cdk7, human Cyclin H, MAT-1) (Homo sapiens, UniProt P50613); test: in vitro time-resolved-fluorescence assay for the CAK kinase activity; assay type: biochemical; conditions: compound 20 uM; read-out: CAK % inhib; 20 uM
T2 construct: made in house; host or cells: SF-900 insect cells co-infected with Flag-Cdk7 and Bab-Cyclin H baculoviruses
Summary of the method: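 Kinase activity of the human CAK complex (Flag-tagged Cdk7, Cyclin H, MAT-1), purified from co-infected SF-900 insect cells by Flag-M2 immunoaffinity, was measured by time-resolved fluorescence. In black glutathione-coated 96-well plates, 500 ng GST-CTD substrate with 22 uM ATP was mixed with compound in 30% DMSO/25 mM Hepes and 250 ng CAK. Plates were incubated 20 minutes at 30° C, then stopped with EDTA, bound overnight and washed. A Europium-labeled antibody detected serine-phosphorylated CTD.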

T2 sequence (P50613 with tags, fused parts or gaps): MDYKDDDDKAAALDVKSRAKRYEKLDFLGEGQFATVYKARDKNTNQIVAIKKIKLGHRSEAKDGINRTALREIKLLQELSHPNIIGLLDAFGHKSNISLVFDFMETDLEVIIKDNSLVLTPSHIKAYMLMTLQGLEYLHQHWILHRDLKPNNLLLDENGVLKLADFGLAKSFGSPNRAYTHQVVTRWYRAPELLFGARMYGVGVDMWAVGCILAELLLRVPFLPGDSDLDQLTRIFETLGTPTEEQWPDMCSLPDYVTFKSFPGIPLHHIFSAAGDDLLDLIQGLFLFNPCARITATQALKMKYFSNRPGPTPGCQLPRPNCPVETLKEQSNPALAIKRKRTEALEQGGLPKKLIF
T2 sequence (as listed by the source partner): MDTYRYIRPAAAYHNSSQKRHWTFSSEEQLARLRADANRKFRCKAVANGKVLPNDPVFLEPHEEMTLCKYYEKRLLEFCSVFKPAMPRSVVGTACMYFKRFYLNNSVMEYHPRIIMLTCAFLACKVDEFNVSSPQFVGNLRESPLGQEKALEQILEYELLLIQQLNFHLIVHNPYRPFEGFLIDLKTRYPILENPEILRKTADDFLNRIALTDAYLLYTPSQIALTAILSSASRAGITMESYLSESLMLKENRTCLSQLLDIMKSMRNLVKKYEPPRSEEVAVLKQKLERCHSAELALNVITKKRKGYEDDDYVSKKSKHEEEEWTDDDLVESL
T1 sequence (Q05397 whole entry): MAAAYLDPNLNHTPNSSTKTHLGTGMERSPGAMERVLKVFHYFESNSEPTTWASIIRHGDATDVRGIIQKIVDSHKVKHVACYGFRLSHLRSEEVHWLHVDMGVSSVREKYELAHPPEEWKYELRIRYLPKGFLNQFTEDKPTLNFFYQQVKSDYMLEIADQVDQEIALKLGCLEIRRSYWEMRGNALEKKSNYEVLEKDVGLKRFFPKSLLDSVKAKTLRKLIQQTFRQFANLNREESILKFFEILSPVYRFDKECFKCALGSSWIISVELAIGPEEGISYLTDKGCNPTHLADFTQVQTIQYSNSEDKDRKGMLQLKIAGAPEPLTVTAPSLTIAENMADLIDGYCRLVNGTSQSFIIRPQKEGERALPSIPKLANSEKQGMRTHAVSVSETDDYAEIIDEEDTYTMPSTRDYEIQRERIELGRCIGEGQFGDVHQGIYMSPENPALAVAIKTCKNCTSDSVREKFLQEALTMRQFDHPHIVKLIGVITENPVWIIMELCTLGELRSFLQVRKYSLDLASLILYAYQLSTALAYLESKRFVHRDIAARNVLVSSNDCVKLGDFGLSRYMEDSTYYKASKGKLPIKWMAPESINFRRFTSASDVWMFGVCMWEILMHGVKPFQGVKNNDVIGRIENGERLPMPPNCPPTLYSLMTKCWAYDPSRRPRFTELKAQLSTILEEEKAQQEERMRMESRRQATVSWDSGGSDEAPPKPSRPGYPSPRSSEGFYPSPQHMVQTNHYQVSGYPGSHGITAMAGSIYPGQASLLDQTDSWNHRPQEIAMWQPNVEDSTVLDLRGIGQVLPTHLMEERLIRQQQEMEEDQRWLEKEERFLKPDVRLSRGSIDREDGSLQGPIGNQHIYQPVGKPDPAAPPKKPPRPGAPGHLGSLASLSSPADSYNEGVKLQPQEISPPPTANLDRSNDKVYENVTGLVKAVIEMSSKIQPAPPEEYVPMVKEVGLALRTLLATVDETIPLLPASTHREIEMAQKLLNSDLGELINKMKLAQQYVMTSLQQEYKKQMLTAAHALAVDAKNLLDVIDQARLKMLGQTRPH

Row | inhibition at 10 µM [1] [%] | inhibition at 20 µM [2] [%] | SMILES
1 | 10.4 | 48.7 | c1cc(OCCCN2CCOCC2)ccc1Nc1ncc2nnn(-c3ccc4c(c3)CCC4)c2n1 [Compound 91, (3-Indan-5-yl-3H-[1,2,3]triazolo[4,5-d]pyrimidin-5-yl)-[4-(3-morpholin-4-yl-propoxy)-phenyl]-amine]
2 | 91.2 | 103 | c1cc(OCCCN2CCCC2)ccc1Nc1ncc2nnn(-c3ccc4c(c3)CCC4)c2n1 [Compound 92, (3-Indan-5-yl-3H-[1,2,3]triazolo[4,5-d]pyrimidin-5-yl)-[4-(3-pyrrolidin-1-yl-propoxy)-phenyl]-amine]
3 | 90.8 | 101 | OC1CCN(CCCOc2ccc(Nc3ncc4nnn(-c5ccc6c(c5)CCC6)c4n3)cc2)C1 (stereo not drawn) [Compound 93, 1-{3-[4-(3-Indan-5-yl-3H-[1,2,3]triazolo[4,5-d]pyrimidin-5-ylamino)-phenoxy]-propyl}-pyrrolidin-3-ol]
